In patent US20240016772A1, “Compositions And Methods Comprising D-Cysteine Or A D-Derivative Thereof” (UNIVERSITE DE GENEVE, priority 2020, published 2024):
“Also recorded” adds a separate entry of the source. Peptide text beside a SMILES is read from it. * marks the point of attachment. Cbz = O=C(OCc1ccccc1)*; CH2F = FC*

Key:
A549 cells [1] = assay: Iron concentration in A549 cells by ICP-MS; format: cell-based, human; conditions: 72 h
Method: FIG. 3. Iron concentration in A549 cells cultured in the presence or absence of D-Cysteine for 72 h. Iron was measured using ICP-MS (Inductively coupled plasma mass spectrometry).
Moreover, D-cysteine could also trigger ferritinophagy, which is a process triggered in cells lacking iron. The most likely explanation is that D-cysteine, which accumulates in cells since it is not consumed during protein synthesis or other pathways, can react with iron through its thiol group, thus acting as an iron chelator. […] As a consequence, intracellular iron is depleted, and cells trigger ferritinophagy releasing ferric iron, thus leading to ROS production, lipid peroxidation and cell death.

[2] = system: osteosarcoma cell line 143B; assay: 2D culture / colony formation, 143B; format: cell-based; conditions: 2D cultures or colony formation assays; not shown
Method: (§1) We therefore decided to test whether the D-cysteine-mediated inhibition of OCR could affect cell growth in a regular normal medium complemented with fetal calf serum. Most culture media used for cell culture contain 300 μM L-cystine. […] Importantly, some cancer cell lines, including HeLa cells (FIG. 4A), the MPM cell line H2052/484 (FIG. 4B), and osteosarcoma cell line 143B (not shown), were insensitive both in 2D cultures or in colony formation assays. The decrease in numbers of cells seen after 72 h exposure to D-cysteine was due to decreased cell proliferation. […] Importantly, in contrast to the results with cancer cells, normal human bronchial epithelial BEAS-2B cells were resistant to D-cysteine exposure even at very high concentration (FIG. 5B).

A375 melanoma cells = assay: Colony formation / proliferation, A375; format: cell-based; conditions: colony formation assays or spheroids
Method: as §1

[3] = system: MDA-MB-231 triple-negative breast cancer cells; assay: Colony formation / proliferation, MDA-MB-231; format: cell-based; conditions: colony formation assays or spheroids
Method: as §1

[4] = rat; 500 mg/kg daily by gavage for one month; cited from earlier work
A549 cells [5] = assay: Mitochondrial respiration (OCR) of A549 cells; format: cell-based, human; conditions: 500 μM, 72 h
Method: FIG. 9: D-cysteine impairs mitochondrial respiration of lung tumor cells. A549 cells were cultured for 72 h in complete media (CM) supplemented or not with 500 μM D-cysteine (D-Cys), and oxygen consumption rate (OCR) was quantified both before (basal respiration) and after sequential addition of oligomycin and FCCP (maximal respiration).

HeLa cells = assay: 2D culture / colony formation, HeLa; format: cell-based; conditions: 2D cultures or colony formation assays
Method: (§2) FIGS. 4A-4D: D-cysteine affects tumor cell viability. Colony formation assays in presence or absence 0.1 mM D-cysteine (D-Cys) for 2 weeks. FIG. 4A: Lung tumor cell lines+cervix cell line (HeLa). FIG. 4B: MPM cell lines. FIG. 4C: A549. FIG. 4D: LuCa62 spheroid formation in presence or absence of 0.1 mM, 0.2 mM or 0.5 mM D-cysteine for 17 days.
as §1

[6] = system: BZR tumorigenic bronchial epithelial cells; assay: Colony formation / proliferation, BZR; format: cell-based; conditions: colony formation assays or spheroids
Method: as §2, §1

[7] = system: cell lines derived from malignant pleural mesothelioma (MPM); assay: Colony formation, MPM cell lines; format: cell-based; conditions: colony formation assays or spheroids
Method: as §2, §1

A549 cells [8] = assay: Oxidized (GSSG) and total (GSH) glutathione levels in A549 cells; format: cell-based, human; conditions: 500 μM, 72 h
Method: (§3) A549 cells were cultured for 72 h in complete medium (CM) with or without 500 μM D-cysteine (D-Cys) and different cellular characteristics were analyzed. FIG. 8A: Oxidized (GSSG) and total (GSH) glutathione levels. FIG. 8B: Mitochondrial ROS production by MitoSOX staining. FIG. 8C: Lipid peroxidation by Bodipy C11 staining. MFI=Mean of Fluorescence Intensity (Flow cytometry). * P<0.05.
(§4) We first tested whether D-cysteine could trigger ferroptosis. Ferroptosis is a type of death due to iron-mediated ROS production and lipid peroxidation. In most cases, it is triggered by decreased glutathione levels.

[9] = system: LuCa62 lung adenocarcinoma cells; assay: Colony formation / spheroid formation assay, LuCa62; format: cell-based, human; conditions: colony formation (0.1 mM, 2 weeks) or spheroids (0.1, 0.2 or 0.5 mM, 17 days)
Method: as §2, §1

MPM cell line H2052/484 = assay: 2D culture / colony formation, H2052/484; format: cell-based; conditions: 2D cultures or colony formation assays
Method: as §2, §1

A549 cells [10] = assay: Proliferation of A549 cells (cell counts after 72 h / 3 days); format: cell-based, human; conditions: 500 μM added to culture medium, cells counted after 3 days (72 h)
Method: FIG. 1. Effect of L- and D-Cysteine, each tested at 500 microM, on the proliferation of A549 cells. Cells were counted 3 days after addition of L- or D-Cysteine. (CM=culture medium)
(§5) A549 lung tumor cells (FIG. 5A) or BEAS-2B normal bronchial epithelial cells (FIG. 5B) were cultured in complete media (CM) in the absence or presence of 500 μM D-cysteine (D-Cys). Cell numbers were analyzed after 72 h and after splitting of cells (p1). Cell numbers are expressed as % of cells cultured in the absence of D-cysteine. **** P<0.0001.
as §1

[11] = D-cysteine quantification in blood (serum) of mice after gavage; format: in vivo; conditions: 500 mg/kg by gavage, no DAAO inhibitor, data not shown
Method: As described below, we have initiated experiments in which we administer D-cysteine (500 mg/kg) by gavage, and using the technique described in^37, we have measured the levels of D-cysteine in serum. […] We reasoned that the enzyme D amino oxidase (DAAO), which is known to oxidize D-amino acids and which in mice is highly expressed in the kidney, could explain the rapid clearance of D-cysteine from the blood. We therefore co-administered D-cysteine with an inhibitor of DAAO (JHU 1377). Using this protocol, we achieved higher levels of D-cysteine in the blood (Table 2) and indeed levels higher than that needed to repress tumor cell growth in vitro. Thus far we have only assessed the pharmacokinetics of D-cysteine during the first 6 h following administration. In future experiments we plan to repeat the analysis over longer time periods.
DAAO inhibitor JHU 1377 (30 mg/kg) was injected into mice, followed 2 h later by D-cysteine gavage (500 mg/kg). Blood was collected after 2, 4, and 6 h and levels of L- and D-cysteine were quantified in the serum.

A549 cells [12] = assay: Lipid peroxidation by Bodipy C11 staining; format: cell-based, human; conditions: 500 μM, 72 h
Method: as §3, §4

[13] = system: BEAS-2B normal bronchial epithelial cells; assay: Proliferation of BEAS-2B normal cells; format: cell-based, human; conditions: 500 μM; 72 h and after splitting (p1); even at very high concentration
Method: as §5, §1

A549 cells [14] = assay: Mitochondrial ROS production by MitoSOX staining; format: cell-based, human; conditions: 500 μM, 72 h
Method: as §3, §4

[15] = system: H1299 lung adenocarcinoma cells; assay: Colony formation / proliferation, H1299; format: cell-based; conditions: colony formation assays or spheroids
Method: as §2, §1

[16] = system: MDA-MB-231 breast cancer cells; assay: Proliferation of MDA-MB-231 cells with D-cysteine and 3-MST inhibitor HMPSNE; format: cell-based; conditions: D-cysteine 100 μM and/or HMPSNE
Method: (§6) A549 lung tumor cells (FIG. 10A) or MDA-MB-231 breast tumor cells (FIG. 10B) were cultured in complete media (CM) in the absence or presence of 100 μM D-cysteine (D-Cys), with (grey bars) or without (black bars) HMPSNE, a cell-membrane permeable inhibitor of 3-MST. Cell numbers were counted after 72 hours. * P<0.05, ** P<0.01, *** P<0.001, **** P<0.0001.
(§7) Furthermore, as mentioned above, it exerts toxic effects via iron chelation. Therefore, to survive D cysteine, cells need to increase its catabolism. There are two main pathways for cysteine catabolism: one is via its enzymatic breakdown to produce hydrogen sulfur and organic intermediates that will serve as carbon sources, and the second is via oxidative metabolism through cysteine dioxygenase 48. Inhibition of cysteine catabolism can be obtained with inhibitors of the key enzymes participating in this pathway. We have used a commercially available inhibitor of 3-MST, HMPSNE 49 to inhibit the enzyme in A549 lung cancer cells and in MDA-MB-231 breast cancer cells in the presence or absence of D cysteine.

A549 cells [17] = assay: Cell death of A549 cells exposed to D-cysteine (passage p1, caspase 3 Western blotting, zVAD-fmk, CRISPR screen selection); format: cell-based, human
Method: as §5, §1
For these experiments a pooled lentiviral CRISPR library (Addgene) targeting 19114 human genes was used to infect A549 cells, stably expressing the Cas9 nuclease. Cells were then cultured in the presence of 0.5 mM D-cysteine, a concentration sufficient to induce A549 cell death. After 2-3 weeks, the surviving clones were recovered and the sgRNAs were amplified by PCR and sequenced using next-generation sequencing (NGS) to identify the targeted genes (FIG. 6).

A549 cells [18] = assay: Proteome analysis (LC-MS/MS with TMT) of A549 cells exposed to D-cysteine; format: cell-based, human; conditions: 500 μM, 72 h, FDR<0.01
Method: To understand how D-cysteine modifies protein expression, A549 cells were grown in the presence of D-cysteine for 3 days and total cellular proteins were compared to control cells grown in parallel in the presence of L-cysteine. For these experiments liquid chromatography-tandem mass spectrometry (LC-MS/MS) coupled with tandem mass tagging (TMT) was employed, a procedure which enables simultaneous protein identification and relative quantification of two different samples in the same proteomics experiment.
Proteome analysis of A549 cells cultured in the absence or presence of 500 μM D-cysteine for 72 h. […] FC=Fold change.

A549 lung cancer cells = assay: Proliferation of A549 cells with D-cysteine and 3-MST inhibitor HMPSNE; format: cell-based, human; conditions: D-cysteine 100 μM and/or HMPSNE
Method: as §6, §7

[19] = system: mitochondrial respiration; assay: Oxygen consumption rate of cells in poor medium with single amino acids; format: cell-based; conditions: cells in poor medium containing only glucose, each amino acid tested separately; data not shown

N[C@H](CS)C(=O)O [D-cysteine]
cellular iron (ICP-MS) (A549 cells [1]): decrease in cellular iron | sensitivity of osteosarcoma cell line 143B [2]: insensitive | antiproliferative effect, A375 (A375 melanoma cells): antiproliferative effect | antiproliferative effect, MDA-MB-231 [3]: antiproliferative effect | adverse effect on the animals [4]: no adverse effect | basal oxygen consumption (A549 cells [5]): strongly impaired | maximal oxygen consumption (A549 cells [5]; after oligomycin and FCCP): strongly impaired | sensitivity of HeLa cells (HeLa cells): insensitive | antiproliferative effect, BZR [6]: antiproliferative effect | antiproliferative effect, MPM-derived cell lines [7]: antiproliferative effect | glutathione levels (A549 cells [8]): did not induce a drop in glutathione | antiproliferative effect, LuCa62 [9]: antiproliferative effect | sensitivity of MPM cell line H2052/484 (MPM cell line H2052/484): insensitive | proliferation of A549 cells (A549 cells [10]): inhibited the proliferation; also recorded: impairs proliferation of tumor cells | initial level of D-cysteine in the blood [11]: around 200 μM | concentration at 2 h ([11]; mouse, serum, oral, read-out: level of D-cysteine in the blood within the first 2 h): 5 µM | lipid peroxidation (A549 cells [12]): induced; also recorded: induces an increase | proliferation of normal BEAS-2B cells [13]: resistant | mitochondrial ROS production (A549 cells [14]): induced ROS production; also recorded: induces an increase | antiproliferative effect, H1299 [15]: antiproliferative effect | cell proliferation (cell numbers after 72 hours), MDA-MB-231 [16]: did not significantly alter the growth | cell death after first passage of cells (p1) (A549 cells [17]; A549, 500 μM D-cysteine, after 72 hours, following first passage): extensive cell death | concentration sufficient to induce A549 cell death (A549 cells [17]; A549 cells stably expressing Cas9, culture 2-3 weeks): 0.5 mM | caspase 3 by Western blotting (A549 cells [17]; D-cysteine-exposed cells, data not shown): No increase in caspase 3 | FC (log2) CIAO1 protein (A549 cells [18]): −1.179 log2 | FC (log2) COX4I1 protein (A549 cells [18]): −0.6951 log2 | FC (log2) MT-CO3 protein (A549 cells [18]): −1.538 log2 | FC (log2) MT-ND4 protein (A549 cells [18]): −1.86 log2 | FC (log2) NDUFA4 protein (A549 cells [18]): −0.5939 log2 | FC (log2) NDUFA5 protein (A549 cells [18]): −0.8033 log2 | FC (log2) NDUFA7 protein (A549 cells [18]): −1.584 log2 | FC (log2) NDUFA9 protein (A549 cells [18]): −0.5906 log2 | FC (log2) NDUFA10 protein (A549 cells [18]): −0.8723 log2 | FC (log2) NDUFA12 protein (A549 cells [18]): −0.6836 log2 | FC (log2) NDUFS1 protein (A549 cells [18]): −1.133 log2 | FC (log2) NDUFS4 protein (A549 cells [18]): −0.9309 log2 | FC (log2) NDUFS7 protein (A549 cells [18]): −0.8355 log2 | FC (log2) NDUFS8 protein (A549 cells [18]): −0.8273 log2 | FC (log2) NDUFV1 protein (A549 cells [18]): −1.064 log2 | FC (log2) NDUFV2 protein (A549 cells [18]): −0.7451 log2 | FC (log2) SDHB protein (A549 cells [18]): −1.214 log2 | cell proliferation (cell numbers after 72 hours), A549 (A549 lung cancer cells): did not significantly alter the growth

N[C@H](CSSC[C@@H](N)C(=O)O)C(=O)O [D-cystine]
proliferation of A549 cells (A549 cells [10]): inhibited the proliferation

Cc1cc(=O)[nH]c(SCC(=O)c2cccc3ccccc23)n1 [HMPSNE]
cell proliferation (cell numbers after 72 hours), MDA-MB-231 [16]: significant impact; also recorded: potentiates the anti-proliferative effect of D-cysteine | cell proliferation (cell numbers after 72 hours), A549 (A549 lung cancer cells): significant impact; also recorded: potentiates the anti-proliferative effect of D-cysteine

N[C@@H](CS)C(=O)O [L-cysteine, reference compound]
proliferation of A549 cells (A549 cells [10]): had no effect | proliferation of A549 cells (A549 cells [10]; listed as L form of cysteine): no adverse effect | inhibitory effect on oxygen consumption rate (OCR) [19]: responsible for the observed effect

COC(=O)C[C@H](NC(=O)[C@H](C)NC(=O)[C@@H](NC(=O)OCc1ccccc1)C(C)C)C(=O)CF [zVAD-fmk, reference compound] (Cbz-Val-Ala-Asp(OMe)-CH2F)
protection from D-cysteine-induced cell death by added pan-caspase inhibitor (A549 cells [17]; added to D-cysteine-exposed cells, data not shown): did not protect the cells
